Literature values in US20030077758A1, “Myc repressor modulation to treat aging-related disorders” (priority 2000, published 2003).

Molecular target: AP-2 (Homo sapiens, UniProt P05549)
Conditions: in vitro; apparently by oxidizing cysteine residues in the AP-2 DNA binding domain

Chain of AP-2 (P05549 whole entry, species assumed, the tested form may be a part): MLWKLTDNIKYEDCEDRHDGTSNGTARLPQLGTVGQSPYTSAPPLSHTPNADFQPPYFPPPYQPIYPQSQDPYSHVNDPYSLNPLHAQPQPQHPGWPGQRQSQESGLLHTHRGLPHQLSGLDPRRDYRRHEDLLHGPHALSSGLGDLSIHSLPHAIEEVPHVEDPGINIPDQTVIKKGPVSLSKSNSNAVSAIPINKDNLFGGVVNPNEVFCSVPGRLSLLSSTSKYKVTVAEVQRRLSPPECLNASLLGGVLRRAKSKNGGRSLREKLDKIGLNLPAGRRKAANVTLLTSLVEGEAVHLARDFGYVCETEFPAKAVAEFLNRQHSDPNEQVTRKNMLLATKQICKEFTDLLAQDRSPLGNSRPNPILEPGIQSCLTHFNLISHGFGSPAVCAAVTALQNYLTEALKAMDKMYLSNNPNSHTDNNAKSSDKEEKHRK

Row | AP-2 DNA binding activity | SMILES
1 | inhibited | OO [hydrogen peroxide]
2 | inhibited | CN(C)C(=O)/N=N/C(=O)N(C)C [diamide]
